US11957728B2, “Compositions for targeting receptor for advanced glycation end-products (RAGE) in a chronic inflammatory condition” (Sami-Sabinsa Group Limited, priority 2020, dated 2024)
Values belong to the compound of their own block, whether it stands above or below them.

Tests used:
[1] = test system: reactive oxygen species (ROS); experiment: Oxidative stress in tissue homogenates (DCFDA fluorescence) of HFFD diabetic rats; format: in vivo, Wistar Rats; conditions: for Relative Fluorescence Intensity, Average: Normal 6.5, Diabetic 23.8
From the text: Wistar Rats (150 g) were given High fat and fructose diet (HFFD) to induced type 2 diabetes (T2D). HFFD induces the development of diabetes associated with long term metabolic disorders including Fasting hyperglycemia, pre- and post-prandial hyperinsulinemia, Insulin resistance, Glucose intolerance and Dyslipidemia. Animals in HFFD show complications associated with T2D such as hepatic steatosis complicated by fibrosis, inflammation, hyperleptinemia and endothelial dysfunction.
Rats were co administered with AC3 (100 mg/kg), BAP (200 μg/kg) BAP+AC3 (200 μg+100 mg/kg) BAP+AC3 (50 μg+100 mg/kg) and Metformin as positive control at 100 mg/kg along with HFFD for 90 days (Table 4). The organs were collected at the end of the experiment to evaluate the effect of the supplements on RAGE expression, oxidative stress and inflammation.
The level of oxidative stress in tissue was estimated by using 20,70-dichlorofluorescin diacetate (DCFDA), a fluorogenic dye that measures hydroxyl, peroxyl, and other reactive oxygen species (ROS) activity. Briefly, an aliquot of the tissue homogenates (10 μL) were mixed with 150 μL ethanol solution of DCFDA to the final concentration of 10 mM. After incubation for 30 min at room temperature in dark, the fluorescence was measured with the excitation and emission wavelengths of 488 and 520 nm. Higher the fluorescence, higher is the oxidative stress. oxidative stress is decreased in the subject, and brought about by curcuminoids. BAP, or their combination.

IL-6 = IL-6 expression in pancreas of HFFD diabetic rats (qRT-PCR); format: in vivo, Wistar Rats; conditions: Diabetic 1.60 ± 0.09
From the text: (§1) Wistar Rats (150 g) were given High fat and fructose diet (HFFD) to induced type 2 diabetes (T2D). HFFD induces the development of diabetes associated with long term metabolic disorders including Fasting hyperglycemia, pre- and post-prandial hyperinsulinemia, Insulin resistance, Glucose intolerance and Dyslipidemia. Animals in HFFD show complications associated with T2D such as hepatic steatosis complicated by fibrosis, inflammation, hyperleptinemia and endothelial dysfunction. Rats were co administered with AC3 (100 mg/kg), BAP (200 μg/kg) BAP+AC3 (200 μg+100 mg/kg) BAP+AC3 (50 μg+100 mg/kg) and Metformin as positive control at 100 mg/kg along with HFFD for 90 days (Table 4). The organs were collected at the end of the experiment to evaluate the effect of the supplements on RAGE expression, oxidative stress and inflammation. […] from pancreas sample using the trizol method. […] First-strand cDNA was prepared from RNA samples using oligo dT primers and Superscript III reverse transcriptase (cDNA synthesis kit, Invitrogen™) Quantitative real-time PCR (qRT-PCR) was performed with SYBR Green I fluorescent dye using Light cycler 96 according to the manufacturer's instructions (Light Cycler® FastStart DNA Master SYBR Green I, Roche). […] The gene expression of the target gene in each test sample was determined by relative quantification using the comparative Ct (ΔΔCt) method.

TNF-α = TNF-α expression in pancreas of HFFD diabetic rats (qRT-PCR); format: in vivo, Wistar Rats; conditions: Diabetic 1.73 ± 0.34
From the text: as §1

RAGE = RAGE expression in pancreas of HFFD-induced diabetic rats (qRT-PCR); format: in vivo, Wistar Rats
From the text: as §1

IL-1β = IL-1β expression in pancreas of HFFD diabetic rats (qRT-PCR); format: in vivo, Wistar Rats; conditions: Diabetic 1.66 ± 0.04
From the text: as §1

[2] = molecular target: DPP4 (Dipeptidyl-peptidase 4) (Homo sapiens, UniProt P27487); experiment: Inhibition of DPP4 enzyme; format: biochemical; parameters: Anti-DPP4 activity: unit of the concentration uncertain
glycation = experiment: Anti-glycation activity of curcuminoids at 24 and 72 hrs (320/405); format: biochemical
[3] = test system: formation of AGE (bovine serum albumin + D-Ribose); experiment: In vitro anti-glycation assay (BSA + D-Ribose, fluorescence Ex/Em 390/460 nm, 24 h); format: biochemical
From the text: Glycation is the non-enzymatic glycosylation reaction involving amino groups of proteins, lipids, or nucleic acids with sugar aldehyde or keto groups resulting in the formation of advanced glycosylation end-products (AGE) (Yamagishi et al. Pathologic role of dietary advanced glycation end products in cardiometabolic disorders, and therapeutic intervention, Nutrition, 32(2), 157-65 (2016)). The reactive carbonyls of sugars combine with amino groups of a protein, lipid or nucleic acid generating Schiff bases, which rearrange to Amadori products. In a series of slow reactions, the Amadori reactions, Schiff base and Maillard reactions, ultimately form AGE. Although glycation is slow in vivo, the glycation products have long-lasting effects. The effect of test substances on preventing the formation of AGE was evaluated in vitro
Anti-glycation activity was evaluated as described earlier (Sero et al. Tuning a 96-Well Microtiter Plate Fluorescence-Based Assay to Identify AGE Inhibitors in Crude Plant Extracts) Briefly, 10 μl of various sample concentrations were added to 40 μl of 25 mg/ml bovine serum albumin and 50 μl of 150 mg/ml D-Ribose in a 96 well black microplate. D-Ribose with buffer served as control. The plate containing the mixture was incubated for 24 h at 37° C. The advanced glycation product was detected by measuring the fluorescence intensity at Ex/Em of 390/460 nm by using BMG FLUOstar Optima Microplate reader.

[4] = test system: inflammatory marker (TNF-α, IL6, IL-1β); experiment: Inflammatory cytokine expression in pancreas of HFFD diabetic rats, overall statements; format: in vivo, Wistar Rats; conditions: BAP 200 ug/kg; AC3 100 mg/kg; combinations; p<0.05
From the text: as §1

DPP4 (Dipeptidyl-peptidase 4), sequence (P27487 whole entry, species assumed): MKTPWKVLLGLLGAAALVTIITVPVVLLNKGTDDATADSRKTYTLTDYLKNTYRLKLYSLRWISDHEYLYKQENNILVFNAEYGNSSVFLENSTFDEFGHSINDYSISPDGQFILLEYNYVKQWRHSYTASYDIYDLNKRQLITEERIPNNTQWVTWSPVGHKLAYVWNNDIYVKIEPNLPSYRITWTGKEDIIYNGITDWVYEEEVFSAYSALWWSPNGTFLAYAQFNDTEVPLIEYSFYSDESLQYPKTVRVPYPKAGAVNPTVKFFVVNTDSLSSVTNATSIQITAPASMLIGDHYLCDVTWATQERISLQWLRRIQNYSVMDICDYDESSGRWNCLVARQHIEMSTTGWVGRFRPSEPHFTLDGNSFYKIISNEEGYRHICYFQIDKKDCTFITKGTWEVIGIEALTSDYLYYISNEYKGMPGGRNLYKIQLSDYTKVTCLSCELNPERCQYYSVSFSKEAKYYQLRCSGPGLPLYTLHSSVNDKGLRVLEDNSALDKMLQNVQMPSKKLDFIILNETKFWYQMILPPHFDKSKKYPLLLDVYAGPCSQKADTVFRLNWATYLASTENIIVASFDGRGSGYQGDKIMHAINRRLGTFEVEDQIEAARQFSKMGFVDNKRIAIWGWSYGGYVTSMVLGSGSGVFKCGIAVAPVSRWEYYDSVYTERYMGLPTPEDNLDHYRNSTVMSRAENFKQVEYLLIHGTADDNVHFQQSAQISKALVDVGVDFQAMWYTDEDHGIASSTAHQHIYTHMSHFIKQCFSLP

SMILES: CN(C)C(=N)N=C(N)N [Metformin]
Relative Fluorescence Intensity, Average ([1]; Metformin 100 mg/kg): 28.94
Expression level of IL-6 (Normal = 1) (IL-6; Metformin 100 mg/kg): 1.04 ± 0.12
Expression level of TNF-α (Normal = 1) (TNF-α; Metformin 100 mg/kg): 0.91 ± 0.22
Reduction of RAGE expression (RAGE; metformin 100 mg/kg, pancreas): 6.9%
Expression level of IL-1β (Normal = 1) (IL-1β; Metformin 100 mg/kg): 0.89 ± 0.05

Anti-DPP4 activity ([2]; Conc 12.5 (unit uncertain)): 43.58
Anti-DPP4 activity ([2]; Conc 25 (unit uncertain)): 56.07
Anti-DPP4 activity ([2]; Conc 50 (unit uncertain)): 58.55
SMILES: O=C(/C=C/c1ccc(O)cc1)CC(=O)/C=C/c1ccc(O)cc1 [BDMC, Bisdemethoxycurcumin]

Anti-DPP4 activity ([2]; Conc 12.5 (unit uncertain)): 14.11
Anti-DPP4 activity ([2]; Conc 25 (unit uncertain)): 48.88
Anti-DPP4 activity ([2]; Conc 50 (unit uncertain)): 70.29
Effectiveness against DPP4 (comparison in words) ([2]; Table 11): as effective as AC3
SMILES: COc1cc(/C=C/C(=O)CC(=O)/C=C/c2ccc(O)c(OC)c2)ccc1O [Curcumin, curcumin]
Anti-Glycation activity (glycation; 24 hrs (320/405), Conc 0.3125 mg/mL): 29.67
Anti-Glycation activity (glycation; 24 hrs (320/405), Conc 0.625 mg/mL): 35.90
Anti-Glycation activity (glycation; 72 hrs (320/405), Conc 0.625 mg/mL): 44.42

SMILES: COc1cc(/C=C/C(O)=C/C(=O)/C=C/c2ccc(O)cc2)ccc1O [DMC, demethoxycurcumin]
Anti-DPP4 activity ([2]; Conc 12.5 (unit uncertain)): 23.56
Anti-DPP4 activity ([2]; Conc 25 (unit uncertain)): 39.86
Anti-DPP4 activity ([2]; Conc 50 (unit uncertain)): 62.60

SMILES: CCCCCCCCCCCCCCCC(=O)O[C@H]1CC[C@]2(C)[C@H]3CC=C4[C@@H]5CC(C)(C)CC[C@]5(C)CC[C@@]4(C)[C@]3(C)CC[C@H]2C1(C)C [BAP, β-amyrin palmitate]
Relative Fluorescence Intensity, Average ([1]; BAP 200 μg/kg): 11.5
Decrease of oxidative stress from the diabetic control ([1]; HFFD rats, 90 days): 2 fold
Expression level of IL-6 (Normal = 1) (IL-6; BAP 200 μg/kg): 2.09 ± 0.08
Expression level of TNF-α (Normal = 1) (TNF-α; BAP 200 μg/kg): 2.01 ± 0.31
Effect on pancreatic RAGE expression (RAGE; BAP 200 μg/kg, 90 days with HFFD, vs diabetic rats): no effect
Percentage Inhibition ([3]; BAP 1 μg/mL): 0%
Percentage Inhibition ([3]; BAP 2 μg/mL): 11.92%
Percentage Inhibition ([3]; BAP 4 μg/mL): 9.67%
Inhibition of AGE formation (in words) ([3]; in vitro, BSA + ribose): poor inhibitor of AGE formation
Reduction of inflammatory cytokine expression in pancreas (in words) [4]: not effective
Expression level of IL-1β (Normal = 1) (IL-1β; BAP 200 μg/kg): 1.62 ± 0.11
